Reference: PubChem BioAssay (NCI)
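96-well plates; 48 h exposure; 5 concentrations. Endpoints by linear interpolation between flanking doses. Not reached: highest tested concentration assigned. TGI denotes the concentration required for complete inhibition of growth.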

Tests used:
Assay in all cases: inhibition of tumour cell growth, NCI panel, 48 h
[1] = tested on: 786-0 renal
[2] = tested on: A498 renal
[3] = tested on: A549 NSCLC
[4] = tested on: ACHN renal
[5] = tested on: BT-549 breast
[6] = tested on: CAKI-1 renal
[7] = tested on: CCRF-CEM leukemia
[8] = tested on: COLO 205 colon
[9] = tested on: DU-145 prostate
[10] = tested on: EKVX NSCLC
[11] = tested on: HCC-2998 colon
[12] = tested on: HCT-116 colon
[13] = tested on: HCT-15 colon
[14] = tested on: HL-60(TB) leukemia
[15] = tested on: HOP-62 NSCLC
[16] = tested on: HOP-92 NSCLC
[17] = tested on: HS 578T breast
[18] = tested on: HT29 colon
[19] = tested on: IGROV1 ovarian
[20] = tested on: K-562 leukemia
[21] = tested on: KM12 colon
[22] = tested on: LOX IMVI melanoma
[23] = tested on: M14 melanoma
[24] = tested on: MALME-3M melanoma
[25] = tested on: MCF7 breast
[26] = tested on: MDA-MB-231 breast
[27] = tested on: MDA-MB-435
[28] = tested on: MDA-N
[29] = tested on: MOLT-4 leukemia
[30] = tested on: NCI-H226 lung
[31] = tested on: NCI-H23 lung
[32] = tested on: NCI-H460 lung
[33] = tested on: NCI-H522 lung
[34] = tested on: NCI/ADR-RES ovarian
[35] = tested on: OVCAR-3 ovarian
[36] = tested on: OVCAR-4 ovarian
[37] = tested on: OVCAR-5 ovarian
[38] = tested on: OVCAR-8 ovarian
[39] = tested on: PC-3 prostate
[40] = tested on: RPMI-8226 leukemia
[41] = tested on: RXF 393 renal
[42] = tested on: SF-268 CNS
[43] = tested on: SF-295 CNS
[44] = tested on: SF-539 CNS
[45] = tested on: SK-MEL-2 melanoma
[46] = tested on: SK-MEL-28 melanoma
[47] = tested on: SK-MEL-5 melanoma
[48] = tested on: SK-OV-3 ovarian
[49] = tested on: SN12C renal
[50] = tested on: SNB-19 CNS
[51] = tested on: SNB-75 CNS
[52] = tested on: SR leukemia
[53] = tested on: SW-620 colon
[54] = tested on: T-47D breast
[55] = tested on: TK-10 renal
[56] = tested on: U251 CNS
[57] = tested on: UACC-257 melanoma
[58] = tested on: UACC-62 melanoma
[59] = tested on: UO-31 renal

## Cc1cc(SCC(=O)c2ccc(Br)cc2)cc(C)[o+]1
[1]
  TGI: > 100 µM
[2]
  TGI: 81.6 µM
[3]
  TGI: > 100 µM
[4]
  TGI: 96.2 µM
[5]
  TGI: 98.4 µM
[6]
  TGI: > 100 µM
[7]
  TGI: 44 µM
[8]
  TGI: 83.7 µM
[9]
  TGI: 68.9 µM
[10]
  TGI: 39.9 µM
[11]
  TGI: 75.2 µM
[12]
  TGI: 65.7 µM
[13]
  TGI: > 100 µM
[14]
  TGI: 33.8 µM
[15]
  TGI: > 100 µM
[16]
  TGI: 74.8 µM
[17]
  TGI: > 100 µM
[18]
  TGI: 65.2 µM
[19]
  TGI: > 100 µM
[20]
  TGI: 74.9 µM
[21]
  TGI: 62.6 µM
[22]
  TGI: > 100 µM
[23]
  TGI: 79.1 µM
[24]
  TGI: 97.9 µM
[25]
  TGI: 38.2 µM
[26]
  TGI: 98.1 µM
[27]
  TGI: 51.3 µM
[28]
  TGI: > 100 µM
[29]
  TGI: 56.2 µM
[30]
  TGI: 95.5 µM
[31]
  TGI: > 100 µM
[32]
  TGI: 76.2 µM
[33]
  TGI: 65.2 µM
[34]
  TGI: 88.3 µM
[35]
  TGI: 49.8 µM
[36]
  TGI: 83.7 µM
[37]
  TGI: 69.9 µM
[38]
  TGI: > 100 µM
[39]
  TGI: > 100 µM
[40]
  TGI: 52.3 µM
[41]
  TGI: 62 µM
[42]
  TGI: > 100 µM
[43]
  TGI: 65.6 µM
[44]
  TGI: 44.5 µM
[45]
  TGI: 76 µM
[46]
  TGI: 42.9 µM
[47]
  TGI: 35.9 µM
[48]
  TGI: > 100 µM
[49]
  TGI: > 100 µM
[50]
  TGI: > 100 µM
[51]
  TGI: 56.9 µM
[52]
  TGI: > 100 µM
[53]
  TGI: > 100 µM
[54]
  TGI: 48.8 µM
[55]
  TGI: 87.9 µM
[56]
  TGI: 90 µM
[57]
  TGI: 65.9 µM
[58]
  TGI: > 100 µM
[59]
  TGI: 83.9 µM

## C=C(C)C1CC2=C(C(=O)OC)C=C(O2)C(C(=C)C)[C@@H]2OC(=O)/C(=C\C1O)[C@H]2N(C)C (stereo partly drawn)
[1]
  TGI: 21 µM
[2]
  TGI: 31.3 µM
[3]
  TGI: 30.8 µM
[4]
  TGI: 24 µM
[5]
  TGI: 24.3 µM
[6]
  TGI: 21.2 µM
[7]
  TGI: 5.4 µM
[8]
  TGI: 29 µM
[9]
  TGI: 24.8 µM
[10]
  TGI: 29 µM
[11]
  TGI: 29 µM
[12]
  TGI: 27.7 µM
[13]
  TGI: 22.5 µM
[14]
  TGI: > 24.2 µM
[15]
  TGI: 34.2 µM
[16]
  TGI: 20.2 µM
[17]
  TGI: 44.2 µM
[18]
  TGI: > 100 µM
[19]
  TGI: 20.9 µM
[20]
  TGI: > 100 µM
[21]
  TGI: 28 µM
[22]
  TGI: 24.2 µM
[23]
  TGI: 29.7 µM
[24]
  TGI: 34.5 µM
[25]
  TGI: 24.9 µM
[26]
  TGI: 43.8 µM
[27]
  TGI: 25 µM
[28]
  TGI: 25.8 µM
[29]
  TGI: > 22.7 µM
[30]
  TGI: 21.7 µM
[31]
  TGI: 28.8 µM
[32]
  TGI: 31.4 µM
[33]
  TGI: 10.3 µM
[34]
  TGI: 26 µM
[35]
  TGI: 25.7 µM
[36]
  TGI: 21 µM
[37]
  TGI: 38 µM
[38]
  TGI: 25.8 µM
[39]
  TGI: 24.5 µM
[40]
  TGI: 14.9 µM
[41]
  TGI: 15.7 µM
[42]
  TGI: 32.9 µM
[43]
  TGI: 32 µM
[44]
  TGI: 22.9 µM
[45]
  TGI: 26.7 µM
[46]
  TGI: 27.8 µM
[47]
  TGI: 27.9 µM
[48]
  TGI: 64.1 µM
[49]
  TGI: 28.5 µM
[50]
  TGI: 50.9 µM
[51]
  TGI: 30.4 µM
[52]
  TGI: > 41.2 µM
[53]
  TGI: 30.3 µM
[54]
  TGI: 45.9 µM
[55]
  TGI: 15.7 µM
[56]
  TGI: 33 µM
[57]
  TGI: 37.1 µM
[58]
  TGI: 28.3 µM
[59]
  TGI: 26.4 µM

## CCN(CC)P1(=S)Oc2ccc3ccccc3c2-c2c(ccc3ccccc23)O1
[1]
  TGI: > 100 µM
[2]
  TGI: > 100 µM
[3]
  TGI: > 100 µM
[4]
  TGI: > 100 µM
[5]
  TGI: > 100 µM
[6]
  TGI: > 100 µM
[7]
  TGI: > 100 µM
[8]
  TGI: > 100 µM
[9]
  TGI: > 100 µM
[10]
  TGI: > 100 µM
[11]
  TGI: > 100 µM
[12]
  TGI: > 100 µM
[13]
  TGI: > 100 µM
[14]
  TGI: > 100 µM
[15]
  TGI: > 100 µM
[16]
  TGI: > 100 µM
[17]
  TGI: > 100 µM
[18]
  TGI: > 100 µM
[19]
  TGI: > 100 µM
[20]
  TGI: > 100 µM
[21]
  TGI: > 100 µM
[22]
  TGI: > 100 µM
[23]
  TGI: > 100 µM
[24]
  TGI: > 100 µM
[25]
  TGI: > 100 µM
[26]
  TGI: > 100 µM
[27]
  TGI: > 100 µM
[28]
  TGI: > 100 µM
[29]
  TGI: > 100 µM
[30]
  TGI: > 100 µM
[31]
  TGI: > 100 µM
[32]
  TGI: > 100 µM
[33]
  TGI: > 100 µM
[34]
  TGI: > 100 µM
[35]
  TGI: > 100 µM
[36]
  TGI: > 100 µM
[37]
  TGI: > 100 µM
[38]
  TGI: > 100 µM
[39]
  TGI: > 100 µM
[40]
  TGI: > 100 µM
[43]
  TGI: > 100 µM
[44]
  TGI: > 100 µM
[45]
  TGI: > 100 µM
[46]
  TGI: > 100 µM
[47]
  TGI: > 100 µM
[48]
  TGI: > 100 µM
[49]
  TGI: > 100 µM
[50]
  TGI: > 100 µM
[51]
  TGI: > 100 µM
[52]
  TGI: > 100 µM
[53]
  TGI: > 100 µM
[54]
  TGI: > 100 µM
[55]
  TGI: > 100 µM
[56]
  TGI: > 100 µM
[57]
  TGI: > 100 µM
[58]
  TGI: > 100 µM
[59]
  TGI: > 100 µM

## COC(=O)c1ccc(/C=C/C2=CC(=O)C=CC2=O)cc1
[1]
  TGI: 26.1 µM
[2]
  TGI: 38.6 µM
[3]
  TGI: > 100 µM
[4]
  TGI: 32.7 µM
[5]
  TGI: 26.6 µM
[6]
  TGI: 30.5 µM
[7]
  TGI: 6.54 µM
[8]
  TGI: > 52.5 µM
[9]
  TGI: > 100 µM
[10]
  TGI: 47.5 µM
[11]
  TGI: 38.5 µM
[12]
  TGI: 29.6 µM
[13]
  TGI: 36.8 µM
[14]
  TGI: 5.9 µM
[15]
  TGI: > 100 µM
[16]
  TGI: 32.7 µM
[17]
  TGI: > 100 µM
[18]
  TGI: 48.9 µM
[19]
  TGI: 39.1 µM
[20]
  TGI: 8.55 µM
[21]
  TGI: 31.6 µM
[22]
  TGI: 23.2 µM
[23]
  TGI: > 67.2 µM
[24]
  TGI: 36.9 µM
[25]
  TGI: 27.8 µM
[26]
  TGI: > 49.2 µM
[27]
  TGI: 44 µM
[28]
  TGI: > 100 µM
[29]
  TGI: 7.11 µM
[30]
  TGI: 40.2 µM
[31]
  TGI: 42.4 µM
[32]
  TGI: > 64.6 µM
[33]
  TGI: 3.6 µM
[34]
  TGI: 97.9 µM
[35]
  TGI: 38.4 µM
[36]
  TGI: 42 µM
[37]
  TGI: 46 µM
[38]
  TGI: 61.5 µM
[39]
  TGI: 60.6 µM
[40]
  TGI: 4.49 µM
[41]
  TGI: 42.2 µM
[42]
  TGI: 42.9 µM
[43]
  TGI: 78.2 µM
[44]
  TGI: 45.6 µM
[45]
  TGI: > 62.1 µM
[46]
  TGI: 50.8 µM
[47]
  TGI: > 52 µM
[49]
  TGI: 58 µM
[50]
  TGI: > 43 µM
[51]
  TGI: 99.4 µM
[52]
  TGI: 12.7 µM
[53]
  TGI: 48 µM
[54]
  TGI: 33.5 µM
[55]
  TGI: 44.4 µM
[56]
  TGI: 41.7 µM
[57]
  TGI: 34.8 µM
[58]
  TGI: 40.2 µM
[59]
  TGI: 17.9 µM
